The values that follow come from patent US20260130906A1, “THERAPY COMPRISING ANTI-CD19 ANTIBODY AND SUMO-ACTIVATING ENZYME INHIBITOR” (TAKEDA PHARMACEUTICAL COMPANY LIMITED, priority 2021, published 2026).

One assay concerns the target SUMO-activating enzyme (Homo sapiens, UniProt Q9UBT2). Nature of the assay: Biochemical assays of SUMO-activating enzyme inhibition. An excerpt:
(§1) SAE inhibitors, as disclosed herein, are described, for example, in US 2016/0009744 and U.S. Pat. No. 9,695,154 which is hereby incorporated by reference in its entirety. They may be prepared by methods known to one skilled in the art and/or according to the methods described in US 2016/0009744 and U.S. Pat. No. 9,695,154 . . . . Central to the mechanism of action of useful SAE inhibitors, such as Compound I-263a, in combinations and methods of the present disclosure is production of type 1 IFNs and induction of an innate immune response with activation of both natural killer (NK) cells and macrophages.

For assay [1], the system named is SUMO-activating enzyme and SUMOylation. The experiment in a line: Inhibition of SAE and SUMOylation in cultured tumor cell lines. Type of assay: cell-based. The note with it: cultured mouse and human tumor cell lines.
Source text: as §1

For assay [2], the system named is Daudi human xenograft tumor model. Nature of the assay: Study 1: Daudi human xenograft tumor model. Type of assay: in vivo, CB17 SCID mice. The following applies: for tumor growth inhibition as a single agent (in words): Daudi human Burkitt's lymphoma mouse model; for GRI % / Tumor volume on Day 21 (±SEM): Daudi; for GRI %: Day 21, vs vehicle; for Tumor volume on Day 21 (±SEM): in mm³ (unit assumed). The protocol: The differences in the tumor growth trends over time between pairs of treatment groups were assessed by fitting each animal's data to a simple exponential growth model and comparing the mean growth rates of the two groups, as described in more detail below. The difference in the growth rates was summarized by the GRI, which is the reduction in growth rate experienced by the treatment group relative to that of the reference group, expressed as a fraction of the vehicle growth rate.
A GRI greater than 100% is interpreted as tumor regression when the vehicle group is the same as the reference group. A negative value of the GRI means that the tumors in the treatment group grew faster than the tumors in the reference group. Statistical significance was determined using an unpaired t-test.
Low tumor volumes can cause problems with the data analysis, so all measurements below 25 cubic mm (including 0 values) were excluded from the analysis. After this exclusion step, the tumor volume was assumed to follow an exponential growth model. […]
Daudi is a human Burkitt's Lymphoma cell line. A Daudi human xenograft tumor model was generated by subcutaneous inoculation in the flank of 9 week old female CB17 SCID mice (Charles River Laboratories, Wilmington, MA) with 2.0×10^6 Daudi cells (cell suspension in 0.1 ml RPMI with Matrigel 1:1). When the mean tumor volume reached approximately 140 mm^3, the animals were randomized into one vehicle control group and seven treatment groups (n=7/group) as described in Table 1a. Mice were then dosed with 20% HPβCD or Compound I-263a and/or tafasitamab over a 3 week period. In the combination treatment groups, I-263a was administered first, followed immediately by the administration of tafasitamab. Tumor growth and body weight were measured twice per week during the treatment and post-treatment periods, and mice were humanely euthanized once they had reached their humane endpoint. Tumors were measured using Vernier calipers and volumes were calculated using standard equation: V=W^2×L/2, where V=volume, W=width, and L=length for the tumor.
A 0.8625 mg/mL stock solution of I-263a was formulated weekly in 20% HPβCD and administered intravenously (IV) based on an average body weight using a 0.2 mL dosing volume. Final dose of I-263a received was 7.5 mg/kg. I-263a was administered on a BIW schedule for 3 weeks (Days 0, 4, 7, 11, 14, 18). Tafasitamab was formulated prior to each injection in 0.9% saline at 0.354, 1.15, and 2.3 mg/mL. Final dose of tafasitamab received was 3, 10, or 20 mg/kg based on average body weight. Tafasitamab was administered intraperitoneally (IP) using a 0.2 mL dosing volume, on a BIW schedule for 3 weeks (Days 0, 4, 7, 11, 14, 18). The vehicle group received IV treatment with the vehicle for I-263a (20% HPβCD) on a BIW schedule for three weeks (Days 0, 4, 7, 11, 14, 18).
Statistical analysis for growth rate inhibition was performed on data up to and including Day 21.

Sequence of SUMO-activating enzyme (Q9UBT2 whole entry): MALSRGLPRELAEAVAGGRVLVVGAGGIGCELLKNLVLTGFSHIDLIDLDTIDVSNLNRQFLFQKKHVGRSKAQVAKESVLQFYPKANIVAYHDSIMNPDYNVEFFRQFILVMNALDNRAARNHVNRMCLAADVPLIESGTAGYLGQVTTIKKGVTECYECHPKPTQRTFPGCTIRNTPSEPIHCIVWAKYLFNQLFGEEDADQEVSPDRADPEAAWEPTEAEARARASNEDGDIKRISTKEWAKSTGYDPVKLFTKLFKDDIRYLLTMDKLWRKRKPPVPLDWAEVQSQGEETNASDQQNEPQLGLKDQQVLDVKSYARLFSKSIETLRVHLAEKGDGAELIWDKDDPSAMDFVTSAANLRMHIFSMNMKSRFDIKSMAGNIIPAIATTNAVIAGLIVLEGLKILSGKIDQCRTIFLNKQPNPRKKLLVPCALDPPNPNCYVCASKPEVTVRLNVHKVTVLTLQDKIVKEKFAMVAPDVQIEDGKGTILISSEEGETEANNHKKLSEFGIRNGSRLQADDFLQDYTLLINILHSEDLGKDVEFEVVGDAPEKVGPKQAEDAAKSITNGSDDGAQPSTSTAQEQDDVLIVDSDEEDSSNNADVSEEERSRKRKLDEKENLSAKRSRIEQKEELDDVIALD
Sequence of SUMO-activating enzyme (Q9UBE0 whole entry partner): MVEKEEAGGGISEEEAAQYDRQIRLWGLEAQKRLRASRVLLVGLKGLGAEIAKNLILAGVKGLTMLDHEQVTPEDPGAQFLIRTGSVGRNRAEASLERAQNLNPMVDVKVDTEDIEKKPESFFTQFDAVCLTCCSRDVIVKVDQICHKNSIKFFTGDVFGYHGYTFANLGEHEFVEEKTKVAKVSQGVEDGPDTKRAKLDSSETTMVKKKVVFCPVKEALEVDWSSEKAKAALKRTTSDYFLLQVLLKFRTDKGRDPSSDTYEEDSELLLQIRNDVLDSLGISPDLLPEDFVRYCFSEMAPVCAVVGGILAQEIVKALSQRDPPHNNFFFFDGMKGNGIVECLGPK
Sequence of SUMO-activating enzyme (P63165 1-97 partner limits assumed): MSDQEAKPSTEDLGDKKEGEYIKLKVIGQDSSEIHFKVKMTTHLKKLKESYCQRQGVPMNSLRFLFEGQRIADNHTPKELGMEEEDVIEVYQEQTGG

With `Cc1sc(C(=O)c2cncnc2N[C@@H]2C[C@H](COS(N)(=O)=O)[C@@H](O)C2)cc1[C@@H]1NCCc2ccc(Cl)cc21` [Compound I-263a, [(1R,2S,4R)-4-{[5-({4-[(1R)-7-chloro-1,2,3,4-tetrahydroisoquinolin-1-yl]-5-methyl-2-thienyl}carbonyl)pyrimidin-4-yl]amino}-2-hydroxycyclopentyl]methyl sulfamate], at SUMO-activating enzyme (mechanism-based, covalent adduct with SUMO), the “inhibition of SUMO-activating enzyme activity” value was “potently inhibits enzyme activity”. The “selectivity for SUMO-activating enzyme” value at SUMO-activating enzyme (over ubiquitin-activating enzyme, Nedd8-activating enzyme, autophagy related 7 enzyme) was “Strong selectivity”. Besides, the “inhibition of SUMO-activating enzyme and SUMOylation” value in assay [1] is “Selective and potent inhibition”. The “tumor growth inhibition as a single agent (in words)” value in assay [2] is given as “inhibits tumor growth”. The GRI % in assay [2] (I-263a 7.5 mg/kg IV BIW) is reported as 32%. The “Tumor volume on Day 21 (±SEM)” value in assay [2] (I-263a 7.5 mg/kg IV BIW 3 weeks) worked out at 1015.9 ± 137.9.

Turning to “Tafasitamab: humanized monoclonal antibody that targets the antigen CD19, engineered in the IgG Fc-region to enhance ADCC; sequences in Table 1”, in assay [2], the “tumor growth inhibition as a single agent (in words)” value is “inhibits tumor growth”. Besides, the GRI % in assay [2] (tafasitamab 3 mg/kg IP BIW) was found to be 24%; in assay [2] (tafasitamab 10 mg/kg IP BIW), 28%; in assay [2] (tafasitamab 20 mg/kg IP BIW), 38%. For the same compound, the “Tumor volume on Day 21 (±SEM)” value in assay [2] (tafasitamab 3 mg/kg IP BIW 3 weeks) was 1142 ± 135.1; in assay [2] (tafasitamab 10 mg/kg IP BIW 3 weeks) it was 1132.7 ± 116.5; in assay [2] (tafasitamab 20 mg/kg IP BIW 3 weeks), 835.2 ± 89.1.
